Results as given in ChEMBL document CHEMBL1137930, “Critical structural motif for the catalytic inhibition of human topoisomerase II by UK-1 and analogs” (Bioorg Med Chem Lett, 2004).

Legend:
[1] = biological target: T1, DNA topoisomerase 2-alpha (Homo sapiens, UniProt P11388); assay: Inhibitory concentration against human DNA topoisomerase II, alpha mediated relaxation of pBR322; no measurable activity
[2] = biological target: T1, DNA topoisomerase 2-alpha; assay: Inhibitory concentration against human DNA topoisomerase II, alpha mediated relaxation of pBR322
[3] = biological target: T1, DNA topoisomerase 2-alpha; assay: Inhibitory activity of compound against human DNA topoisomerase II, alpha was evaluated by ability to interfere with the relaxation of supercoiled plasmid DNA
PC-3 = assay: Cytotoxicity of compound against PC-3 cell line; type: functional, cell-based; conditions: Homo sapiens
HL-60 = assay: Cytotoxicity of compound against HL60 cell line; type: functional, cell-based; conditions: Homo sapiens
P388 = assay: Inhibitory activity of compound against P388 murine cell line; range is 0.3 uM-1.6 uM; type: functional, cell-based; conditions: Mus musculus

T1 sequence (P11388 whole entry): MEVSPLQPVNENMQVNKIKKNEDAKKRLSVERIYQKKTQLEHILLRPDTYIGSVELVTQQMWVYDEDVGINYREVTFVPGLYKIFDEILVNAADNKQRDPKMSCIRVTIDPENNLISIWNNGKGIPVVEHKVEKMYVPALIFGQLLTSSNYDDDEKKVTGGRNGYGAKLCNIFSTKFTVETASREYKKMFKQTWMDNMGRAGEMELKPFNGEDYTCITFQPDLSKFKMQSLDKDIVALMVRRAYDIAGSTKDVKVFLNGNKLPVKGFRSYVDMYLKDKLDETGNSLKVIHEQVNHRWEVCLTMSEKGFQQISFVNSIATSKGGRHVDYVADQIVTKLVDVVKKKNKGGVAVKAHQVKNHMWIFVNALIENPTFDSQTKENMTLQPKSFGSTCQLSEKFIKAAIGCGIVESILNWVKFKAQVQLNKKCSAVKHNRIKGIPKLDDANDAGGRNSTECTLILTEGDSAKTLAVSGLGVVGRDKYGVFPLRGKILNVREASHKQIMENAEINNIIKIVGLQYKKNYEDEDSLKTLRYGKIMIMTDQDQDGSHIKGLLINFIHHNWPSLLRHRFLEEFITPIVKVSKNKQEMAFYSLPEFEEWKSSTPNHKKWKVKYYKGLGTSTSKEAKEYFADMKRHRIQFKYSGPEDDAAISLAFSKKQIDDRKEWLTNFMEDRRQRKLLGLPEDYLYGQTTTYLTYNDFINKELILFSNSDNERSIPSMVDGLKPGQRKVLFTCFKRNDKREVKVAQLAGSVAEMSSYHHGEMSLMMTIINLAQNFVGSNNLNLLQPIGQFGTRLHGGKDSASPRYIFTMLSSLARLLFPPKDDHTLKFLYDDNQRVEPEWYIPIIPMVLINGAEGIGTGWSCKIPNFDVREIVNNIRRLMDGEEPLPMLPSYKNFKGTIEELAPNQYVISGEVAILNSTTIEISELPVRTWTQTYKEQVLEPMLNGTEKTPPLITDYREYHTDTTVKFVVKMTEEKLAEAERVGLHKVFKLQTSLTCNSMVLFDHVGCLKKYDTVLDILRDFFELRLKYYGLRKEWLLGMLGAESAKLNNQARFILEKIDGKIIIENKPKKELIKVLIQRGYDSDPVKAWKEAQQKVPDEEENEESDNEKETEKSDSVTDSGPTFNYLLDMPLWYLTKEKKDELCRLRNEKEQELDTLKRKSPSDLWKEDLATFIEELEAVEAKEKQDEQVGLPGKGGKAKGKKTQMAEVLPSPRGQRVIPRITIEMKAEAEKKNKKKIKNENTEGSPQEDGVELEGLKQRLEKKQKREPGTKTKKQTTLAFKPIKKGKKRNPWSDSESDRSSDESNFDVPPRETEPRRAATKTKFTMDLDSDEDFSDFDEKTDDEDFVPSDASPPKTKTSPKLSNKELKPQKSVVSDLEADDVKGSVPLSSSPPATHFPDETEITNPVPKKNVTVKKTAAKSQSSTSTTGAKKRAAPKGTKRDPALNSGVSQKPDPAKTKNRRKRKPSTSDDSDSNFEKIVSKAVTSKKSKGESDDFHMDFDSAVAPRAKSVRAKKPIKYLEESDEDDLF

| IC50 [1] | IC50 [2] | IC50 [3] | IC50 (P388) | SMILES | IC50 (PC-3) | IC50 (HL-60) |
| --- | --- | --- | --- | --- | --- | --- |
| > 100 µM | – | – | – | c1ccc(-c2nc3c(-c4nc5ccccc5o4)cccc3o2)cc1 | – | – |
| – | 20 µM | 20 µM | – | Oc1ccccc1-c1nc2c(-c3nc4ccccc4o3)cccc2o1 | – | – |
| – | 38 µM | – | – | COC(=O)c1cccc2oc(-c3cccc4oc(-c5ccccc5)nc34)nc12 | – | – |
| – | 50 µM | 32 µM | 0.3 µM | COC(=O)c1cccc2oc(-c3cccc4oc(-c5ccccc5O)nc34)nc12 | 0.4 µM | 0.32 µM |
